From publication PMC9019904, “AD Informer Set: Chemical tools to facilitate Alzheimer's disease drug discovery” (Alzheimer's & Dementia : Translational Research & Clinical …, 2022)

Tests used:
[1] = tested on: BV2 (mouse microglia) cell line; assay: pHrodo-myelin phagocytosis/cell viability high content imaging assay: viability (cell count, nuclear area, nuclear intensity); conditions: for 1. Cell count (% control) / 2. Nuclear Area (% Control) / 3. Nuclear DNA Intensity (% control): 48 hours treatment
Procedure, shortened: (§1)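 Duplicate single-point screen at 10 μM over 48 h, combined with pHrodo-myelin phagocytosis during the last 20 h. Cytotoxicity is taken from imaged cell counts and nuclear intensity changes, normalized to untreated wells as % control.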

[2] = tested on: HMC3 (human microglia) cell line; assay: as above; conditions: for 1. Cell count (% control) / 2. Nuclear Area (% Control) / 3. Nuclear DNA Intensity (% control): 48 hours treatment
Procedure, shortened: as §1

[3] = tested on: BV2 (mouse microglia) cell line; assay: pHrodo-myelin phagocytosis/cell viability high content imaging assay: phagocytosis signal; format: cell-based
Procedure, shortened: (§2)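 HCI read-out ~22 h post pHrodo-myelin; phagocytosis + viability simultaneously; 3 parameters extracted; intensity up = early apoptosis, down = later apoptosis.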

[4] = tested on: HMC3 (human microglia) cell line; assay: as above; format: cell-based
Procedure, shortened: as §2

[5] = BV2 cells, 10 uM compound, 48 hours treatment, pHrodo-myelin final 20 hours
[6] = HMC3 cells, 10 uM compound, 48 hours treatment, pHrodo-myelin final 20 hours
[7] = BV2, compound 10 uM, pHrodo-myelin
[8] = HMC3, compound 10 uM, pHrodo-myelin

Row | Compound | 1. Cell count (% control) ([1]; BV2 cells, 10 uM compound) | 2. Nuclear Area (% Control) ([1]; BV2 cells, 10 uM compound) | 3. Nuclear DNA Intensity (% control) ([1]; BV2 cells, 10 uM compound) | 1. Cell count (% control) ([2]; HMC3 cells, 10 uM compound) | 2. Nuclear Area (% Control) ([2]; HMC3 cells, 10 uM compound) | 3. Nuclear DNA Intensity (% control) ([2]; HMC3 cells, 10 uM compound) | 4. Phagocytosis (% control) [3, 5] [% control] | 4. Phagocytosis (% control) [4, 6] [% control] | other results
1 | Cc1cc2c(cc1C1(c3ccc(C(=O)O)cn3)CC1)C(C)(C)CCC2(C)C [UNC10302904A] | 72.5 | 111.9 | 92.6 | 110.6 | 108.2 | 90.0 | 105.9 | 73.6 | –
2 | COc1cccc2c(NCc3ccccc3)nc(-n3c(N)nc4ccccc43)nc12 [UNC10302841A] | 33.6 | 129.2 | 62.4 | 55.4 | 78.1 | 92.0 | 0.00115 | 0.0406 | –
3 | COc1cc([C@@H]2c3cc4c(cc3[C@H](O)[C@H]3COC(=O)[C@H]23)OCO4)cc(OC)c1OC [Podofilox] | – | – | – | – | – | – | – | – | Mouse microglial cytotoxicity at 10 μM (<70% control) ([1]; 10 μM, BV2): Y (The compound was found to be cytotoxic (cell count threshold: <70% control) when murine immortalized microglial cells were dosed at 10 μM (Y: yes)); Human microglial cytotoxicity at 10 μM (<70% control) ([2]; 10 μM, HMC3): Y (The compound was found to be cytotoxic (cell count threshold: <70% control) when human immortalized microglial cells were dosed at 10 μM (Y: yes)); Stimulation of mouse microglial phagocytosis at 10 μM (>150% control) ([3]; 10 μM, BV2): Y (The compound was found to stimulate phagocytosis (response threshold: >150% control) when murine immortalized microglial cells were dosed at 10 μM (Y: yes)); Inhibition of human microglial phagocytosis at 10 μM (<70% control) ([4]; 10 μM, HMC3): Y (The compound was found to inhibit phagocytosis (response threshold: <70% control) when human immortalized microglial cells were dosed at 10 μM (Y: yes))
4 | CN(C)c1ccc2c(c1)Sc1cc(N(C)C)ccc1N2.CS(=O)(=O)O.CS(=O)(=O)O [UNC10303097A, reference compound] | 14.2 | 111.0 | 58.9 | 59.1 | 75.8 | 120.7 | 102.3 | 6.7 | cytotoxicity in mouse microglial cells (cell count < 70% control) [1]: manifested toxicity in both microglial cell lines; cytotoxicity in human microglial cells (cell count < 70% control) [2]: manifested toxicity in both microglial cell lines
5 | COc1cc(/C=C/c2ccc(NC(=O)/C=C/c3cc(OC)c(OC)c(OC)c3)cc2)cc(OC)c1 [UNC10302905A] | 33.3 | 95.8 | 130.4 | 87.3 | 107.2 | 109.8 | 64.0 | 65.4 | –
6 | CCCCCCCCCCCCCCCCOCC(COCC(F)(F)F)OP(=O)([O-])OC.[Li+] (stereo not shown) [UNC8441A] | – | – | – | – | – | – | – | – | 1. Cell count (% control) ([1]; BV2, compound 10 uM): 80.6 % control; 2. Nuclear Area (% Control) ([1]; BV2, compound 10 uM): 107.7 % Control; 3. Nuclear DNA Intensity (% control) ([1]; BV2, compound 10 uM): 98.9 % control; 1. Cell count (% control) ([2]; HMC3, compound 10 uM): 76.1 % control; 2. Nuclear Area (% Control) ([2]; HMC3, compound 10 uM): 97.9 % Control; 3. Nuclear DNA Intensity (% control) ([2]; HMC3, compound 10 uM): 109.2 % control; 4. Phagocytosis (% control) [3, 7]: 99.7 % control; 4. Phagocytosis (% control) [4, 8]: 43.1 % control
7 | CN(C)CC[C@H](CSc1ccccc1)Nc1ccc(S(=O)(=O)NC(=O)c2ccc(N3CCN(Cc4ccccc4-c4ccc(Cl)cc4)CC3)cc2)cc1[N+](=O)[O-] [UNC10302898A] | 128.7 | 97.8 | 106.0 | 148.0 | 98.3 | 97.1 | 104.5 | 82.2 | –
8 | CN(C)CCCOc1c(Br)cc(/C=C/C(=O)NCCCOc2c(Br)cc(CCN(C)C)cc2Br)cc1Br [UNC10302702A] | – | – | – | – | – | – | – | – | 1. Cell count (% control) ([1]; BV2, compound 10 uM): 26.8 % control; 2. Nuclear Area (% Control) ([1]; BV2, compound 10 uM): 80.6 % Control; 3. Nuclear DNA Intensity (% control) ([1]; BV2, compound 10 uM): 57.8 % control; 1. Cell count (% control) ([2]; HMC3, compound 10 uM): 39.0 % control; 2. Nuclear Area (% Control) ([2]; HMC3, compound 10 uM): 54.1 % Control; 3. Nuclear DNA Intensity (% control) ([2]; HMC3, compound 10 uM): 166.0 % control; 4. Phagocytosis (% control) [3, 7]: 0.0 % control; 4. Phagocytosis (% control) [4, 8]: 0.00724 % control
9 | Cc1c(COc2cc(OCc3cccc(C#N)c3)c(CN3C[C@H](O)C[C@@H]3C(=O)O)cc2Cl)cccc1-c1ccc2c(c1)OCCO2 [UNC10302972A] | 81.0 | 106.7 | 113.8 | 116.0 | 98.5 | 101.3 | 125.1 | 111.9 | –
10 | C=CC[N+]1(C2CC3C4CCC5CC(O)C(N6CCOCC6)CC5(C)C4CCC3(C)C2OC(C)=O)CCCC1.[Br-] (stereo not shown) [UNC10302696A] | – | – | – | – | – | – | – | – | 1. Cell count (% control) ([1]; BV2, compound 10 uM): 144.5 % control; 2. Nuclear Area (% Control) ([1]; BV2, compound 10 uM): 102.9 % Control; 3. Nuclear DNA Intensity (% control) ([1]; BV2, compound 10 uM): 102.4 % control; 1. Cell count (% control) ([2]; HMC3, compound 10 uM): 145.5 % control; 2. Nuclear Area (% Control) ([2]; HMC3, compound 10 uM): 103.7 % Control; 3. Nuclear DNA Intensity (% control) ([2]; HMC3, compound 10 uM): 86.9 % control; 4. Phagocytosis (% control) [3, 7]: 148.6 % control; 4. Phagocytosis (% control) [4, 8]: 62.6 % control
11 | C[C@H](N/C(=N\c1cccc2ncccc12)NC#N)c1ccccc1 [UNC10302855A] | 130.8 | 103.4 | 103.1 | 114.9 | 101.2 | 97.7 | 124.5 | 63.4 | –
12 | Nc1ncnc2c1nc(Sc1ccc(Cl)cc1)n2[C@@H]1O[C@@H]2COP(=O)([O-])O[C@H]2[C@H]1O.[Na+] [UNC10302890A] | 107.7 | 106.8 | 98.4 | 115.9 | 99.4 | 99.1 | 104.7 | 84.6 | –
13 | Cc1cc(NC(=O)Nc2ccc(F)c(F)c2)n(-c2ccccc2)n1 [UNC10302846A] | 131.4 | 104.7 | 107.1 | 127.2 | 103.4 | 94.5 | 158.9 | 71.8 | –
14 | CN1C(N)=N[C@](C)(c2cc(NC(=O)c3ccc(F)cn3)ccc2F)CS1(=O)=O [UNC10303092A] | 104.0 | 108.1 | 102.5 | 119.4 | 99.5 | 97.7 | 127.2 | 104.7 | –
15 | CC(Nc1nc(N2CCCC2)nc2ccccc12)c1ccccc1 (stereo not shown) [UNC10302900A] | 9.8 | 106.6 | 119.7 | 56.4 | 90.6 | 151.6 | 110.9 | 34.5 | –
